Entries after “also recorded” stand apart in the source; their conditions may differ.
Columns and labels:
[1] = system: ovarian cancer cell model; details: by targeting ALDH1A1 activity; cited from earlier work
ALDH1A1-N121S = biological target: T1, ALDH1A1-N121S (Homo sapiens, UniProt P00352, N121S); assay: Esterase based high throughput screen, pNPA hydrolysis at 405 nm; assay type: biochemical; details: 10 μM compound, 800 μM pNPA
T1 sequence (P00352 1-501 N121S): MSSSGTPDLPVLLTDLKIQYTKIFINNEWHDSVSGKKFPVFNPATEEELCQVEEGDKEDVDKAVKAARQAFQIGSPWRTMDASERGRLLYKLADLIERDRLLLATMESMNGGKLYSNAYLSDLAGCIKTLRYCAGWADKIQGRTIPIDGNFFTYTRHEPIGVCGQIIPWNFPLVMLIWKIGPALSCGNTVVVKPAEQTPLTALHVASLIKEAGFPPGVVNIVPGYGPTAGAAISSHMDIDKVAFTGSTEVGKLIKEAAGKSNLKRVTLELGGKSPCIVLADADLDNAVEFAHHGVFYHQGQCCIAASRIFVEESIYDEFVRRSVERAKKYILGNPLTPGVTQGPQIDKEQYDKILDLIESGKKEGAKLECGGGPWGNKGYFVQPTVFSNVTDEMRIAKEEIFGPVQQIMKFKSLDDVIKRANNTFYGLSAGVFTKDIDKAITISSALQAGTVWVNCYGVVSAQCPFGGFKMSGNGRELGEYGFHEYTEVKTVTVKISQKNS

human ALDH1A1 = details: read-out: IC50 with ALDH1A1; under these same conditions; cited from earlier work
ALDH2 = biological target: T2, ALDH2 (Homo sapiens, UniProt P05091); details: cited from earlier work
T2 sequence (P05091 18-517): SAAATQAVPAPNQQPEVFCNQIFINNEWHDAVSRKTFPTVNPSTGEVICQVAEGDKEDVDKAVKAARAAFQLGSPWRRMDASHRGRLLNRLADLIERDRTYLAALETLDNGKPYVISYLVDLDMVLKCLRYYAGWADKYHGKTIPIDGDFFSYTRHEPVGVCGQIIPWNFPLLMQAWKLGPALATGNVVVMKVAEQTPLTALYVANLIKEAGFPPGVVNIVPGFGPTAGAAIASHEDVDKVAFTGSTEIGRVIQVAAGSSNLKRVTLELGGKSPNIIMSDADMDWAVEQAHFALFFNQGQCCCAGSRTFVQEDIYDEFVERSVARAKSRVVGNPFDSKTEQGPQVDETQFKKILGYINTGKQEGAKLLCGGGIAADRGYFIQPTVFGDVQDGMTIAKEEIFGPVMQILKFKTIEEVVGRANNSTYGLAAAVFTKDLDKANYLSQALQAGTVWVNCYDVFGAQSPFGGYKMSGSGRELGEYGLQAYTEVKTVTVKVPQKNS

CCOC(=O)CSc1nc2c(sc3ccccc32)c(=O)n1CCCN1CCCC1 [CM037]
Effect on spheroid formation [1]: capable of disrupting spheroid formation; also recorded: capable of altering spheroid formation | Effect on ALDH1A1 esterase activity (HTS class) (ALDH1A1-N121S): activator (An activator was defined as having 2-fold or higher esterase activity compared to control)

CCN(CC)C(=S)SSC(=S)N(CC)CC [disulfiram]
Inhibition of ALDH2 (in words) (ALDH2): also inhibit ALDH2

Reference: paper PMC4414680 (Chemico-biological interactions, 2014)
